Data on 22 compounds can be found in patent publication US8252793B2, “Bradykinin receptor agonists and uses thereof to treat ocular hypertension and glaucoma” (Alcon Research, Ltd., priority 2010, dated 2012).

The target of test [1] is T1, BK receptors in human ciliary muscle cells (h-CM) (Homo sapiens, UniProt P30411).
T1 construct: h-CM cells expressing BK receptors were seeded; endogenous in cells; host or cells: human ciliary muscle (h-CM) cells
T1 sequence (P30411 1-391): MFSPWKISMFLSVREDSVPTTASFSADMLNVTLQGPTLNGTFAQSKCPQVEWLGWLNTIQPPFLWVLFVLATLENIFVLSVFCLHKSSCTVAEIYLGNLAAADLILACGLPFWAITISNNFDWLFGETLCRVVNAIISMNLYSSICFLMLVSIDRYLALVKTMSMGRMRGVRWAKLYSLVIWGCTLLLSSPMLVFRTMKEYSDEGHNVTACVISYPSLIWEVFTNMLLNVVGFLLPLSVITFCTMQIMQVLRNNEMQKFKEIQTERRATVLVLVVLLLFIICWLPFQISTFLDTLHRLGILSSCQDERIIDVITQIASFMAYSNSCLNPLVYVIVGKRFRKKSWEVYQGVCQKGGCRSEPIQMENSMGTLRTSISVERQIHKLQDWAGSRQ
Description: Functional assay measuring [Ca2+]i mobilization (FLIPR) in h-CM cells. It is filed as cell-based. The following applies: class symbols (in μM), read-out: CaM (EC50). The method, then:
On the day of the experiment, media was removed, cells were rinsed and 50 μL of serum-free media added. One vial of FLIPR Calcium Assay Kit dye was reconstituted in 50 mL of a FLIPR buffer consisting of Hank's Balanced Salt Solution (HBSS), 20 mM HEPES, and 2.5 mM probenecid, pH 7.4. Cells were loaded with the calcium-sensitive dye by addition of an equal volume (50 μL) to each well of the 96-well plate and incubated with dye for 1 h at 23° C. […] After this time, the test compound plate and cell plate were placed in a Fluorescence Imaging Plate Reader (FLIPR-Tetra®) instrument (Molecular Devices/MDSPharma, Sunnyvale, Calif.). At the beginning of an experimental run, a signal test was performed to check the basal fluorescence signal from the dye-loaded cells and the uniformity of the signal across the plate. […] An aliquot (25 μL) of the test compound was added to the existing 100 μL dye-loaded cells at a dispensing speed of 50 μL/sec. Intracellular calcium mobilization was measured by monitoring real-time changes in cellular fluorescence upon test compound addition. Fluorescence data were collected in real-time at 1.0 sec intervals for the first 60 seconds and at 6.0 second intervals for an additional 120 seconds. Baseline fluorescence readings were normalized across the plate and background-corrected from negative control wells. […] EC50 values were determined by 4-parameter nonlinear curve fitting of the concentration-response curve. Calibration of the instrument was performed using manufacturer's standard procedures.

For test [2], the target named is T2, recombinant human bradykinin B2 receptor (Homo sapiens, UniProt P30411).
T2 construct: expressed in transfected cells; host or cells: Chinese hamster ovary (CHO) cells, membrane homogenates
T2 sequence (P30411 1-391): T1 sequence (P30411 1-391)
Description: [3H]-BK competition radioligand binding to human cloned B2 receptor (CHO cell membranes). On the procedure: Chinese hamster ovary (CHO) cell membrane homogenates (2.5 μg protein) expressing the recombinant human bradykinin B2 receptor were incubated for 60 min at 23° C. with 0.2 nM [^3H]-bradykinin (95.5 Ci/mmole, PerkinElmer) in the absence or presence of the test compound in a buffer containing 50 mM Tris/HCl (pH 7.4), 0.2 g/L 1-10-phenanthroline and 0.1% BSA. All reagent and test compound additions to the assay plates were made using Biomek 3000 robotic workstations (Beckman Instruments, Fullerton, Calif.). Nonspecific binding was determined in the presence of 1 μM unlabeled bradykinin. Following the incubation, the assay was terminated by rapid filtration under vacuum through glass fiber filters (GF/C, PerkinElmer) presoaked with 0.3% polyethyleneimine and rinsed several times with an ice-cold 50 mM Tris-HCl buffer using a 96-sample cell harvester (Tomtec). The filters were air-dried and the radioactivity counted in a beta-scintillation counter (Topcount, PerkinElmer) using a scintillation cocktail (Microscint 20, PerkinElmer) (Sharif and Whiting, Neurochem. Int. 18: 89-96, 1991). Competitive binding inhibition curves were generated using a 7-point concentration—response of test compound in duplicate. Bradykinin peptide was also tested as an internal control in the assay. The data were analyzed using nonlinear, iterative curve-fitting to obtain the potency and intrinsic activities of the test agents as previously described (Sharif et al. J. Pharmacol. Exp. Ther. 286: 1094-1102, 1998; Sharif et al. Invest Ophthalmol. Vis. Sci. 39:2562-2571, 1998; Kelly et al. J. Pharmacol. Exp. Ther. 304: 238-245, 2003). Determined IC50 values were converted to Ki values using the standard Cheng-Prusoff equation.

[3] abbreviates: 0.2 nM [3H]-bradykinin, CHO membranes, 60 min 23° C., mean ± SEM or single value, Ki from IC50 by Cheng-Prusoff, read-out: [3H]-BK Binding to Human Cloned B2 Receptor (Ki).
Setting [4] is: same assay as E1, given as class symbols (in μM), read-out: [3H]-BK Binding to Human Cloned B2 Receptor (Ki, nM), class symbols.

By EC50 is commonly meant the concentration that produces a half-maximal response. A word on the Ki: it is a dissociation constant, usually derived from enzyme kinetics or from competition with a known ligand.

Where two headings read alike, the source gives them in different places.

Regarding `CCc1nc2c(OCc3c(C)ccc(N(C)C(=O)CNC(=O)CCN4CCN(C(=O)NC)CC4)c3C)cccc2n1Cc1ccccn1` [Compound 60], in test [1], the EC50 lay in the range of 0.1 to 1 µM.
For the compound `COc1nc2c(OCc3c(C)ccc(N(C)C(=O)CNC(=O)CN4CCC(NC(C)=O)CC4)c3C)cccc2n1Cc1ccccn1` [Compound 51], the Ki in test [2] (setting [3]) worked out at 0.701 µM. In addition, in test [1], the EC50 is 0.1 to 1 µM.
The like results for `COc1nc2c(OCc3c(Cl)ccc(N(C)C(=O)CNC(=O)CN4CCC(NC(C)=O)CC4)c3Cl)cccc2n1Cc1ccccn1` [Compound 15, 2-(2-(4-acetamidopiperidin-1-yl)acetamido)-N-(2,4-dichloro-3-(((2-methoxy-1-(pyridin-2-ylmethyl)-1H-benzo[d]imidazol-4-yl)oxy)methyl)phenyl)-N-methylacetamide] were, in that order, 0.467 µM and 0.1 to 1 µM.
Take `NCCCC[C@H](N)C(=O)N[C@@H](CCCN=C(N)N)C(=O)N1CCC[C@H]1C(=O)N1CCC[C@H]1C(=O)NCC(=O)N[C@@H](Cc1ccccc1)C(=O)N[C@@H](CO)C(=O)N1CCC[C@H]1C(=O)N[C@@H](Cc1ccccc1)C(=O)N[C@@H](CCCN=C(N)N)C(=O)O` [Lys-BK, reference compound]: the Ki in test [2] (setting [4]) was under 0.1 µM.
Take `CNC(=O)CN1CCN(CC(=O)NCC(=O)N(C)c2ccc(Cl)c(COc3cccc4c3nc(OC)n4Cc3ccccn3)c2Cl)CC1` [Compound 53]: the Ki in test [2] (setting [3]) was 0.34 µM. Also, in test [1], the EC50 lay within 0.1 to 1 µM.
As to “3-(4-acetylpiperazin-1-yl)-N-(2-((2,4-dichloro-3-(((2-methoxy-1-(pyridin-2-ylmethyl)-1H-benzo[d]imidazol-4-yl)oxy)methyl)phenyl)(methyl)amino)-2-oxoethyl)propanamide [Compound 16]”, the Ki in test [2] (setting [3]) was 0.985 ± 0.473 µM; in test [2] (setting [4]) it was 0.1 to 1 µM. The EC50 in test [1] was in the range of 0.1 to 1 µM.
Consider `COc1nc2c(OCc3c(Cl)ccc(N(C)C(=O)CNC(=O)CCc4ccc(NS(C)(=O)=O)nc4)c3Cl)cccc2n1Cc1ccccn1` [Compound 5, N-(2-((2,4-dichloro-3-(((2-methoxy-1-(pyridin-2-ylmethyl)-1H-benzo[d]imidazol-4-yl)oxy)methyl)phenyl)(methyl)amino)-2-oxoethyl)-3-(6-(methylsulfonamido)pyridin-3-yl)propanamide], for which the Ki in test [2] (setting [3]) worked out at 0.071 ± 0.03 µM. Also, the EC50 in test [1] was in the range of 0.1 to 1 µM.
For the compound `N=C(N)NCCC[C@H](NC(=O)[C@H](Cc1ccccc1)NC(=O)[C@@H]1CCCN1C(=O)[C@H](CO)NC(=O)[C@H](Cc1ccccc1)NC(=O)CNC(=O)[C@@H]1C[C@@H](O)CN1C(=O)[C@@H]1CCCN1C(=O)[C@@H](N)CCCNC(=N)N)C(=O)O` [Hyp^3-BK, reference compound], the Ki was 0.0019 ± 0.0011 µM in test [2] and under 0.1 µM in test [2] ([3H]-BK Binding to Human Cloned B2 Receptor (Ki, nM), class symbols, same assay as E1, given as class symbols (in μM)).
In the case of `COc1nc2c(OCc3c(Cl)ccc(N(C)C(=O)CNC(=O)CCCN4CCN(C(C)=O)CC4)c3Cl)cccc2n1Cc1ccccn1` [Compound 55], the inhibition constant Ki in test [2] (setting [3]) is 0.984 µM. For the same compound, in test [1], the EC50 fell in the range of 0.1 to 1 µM.
Taken in the same sequence, the figures for `COc1nc2c(OCc3c(Cl)ccc(N(C)C(=O)CNC(=O)CCN4CCNCC4)c3Cl)cccc2n1Cc1ccccn1` [Compound 58] were 3.15 µM and over 1 µM.
The like results for `CCc1nc2c(OCc3c(Cl)ccc(N(C)C(=O)CNC(=O)CCN4CCN(C(=O)NC)CC4)c3Cl)cccn2c1C(O)c1ccccn1` (centres unmarked) [Compound 26] were, in that order, 2.14 ± 0.223 µM and 0.1 to 1 µM.
With `CCc1nc2c(OCc3c(Cl)ccc(N(C)C(=O)CNC(=O)CCN4CCN(C(=O)NC)CC4)c3Cl)cccn2c1C(O)c1ccccn1` (centres unmarked) [Compound 59], the Ki in test [2] (setting [3]) amounted to 2.14 µM. In test [1], the EC50 is 0.1 to 1 µM.
Taken in the same sequence, the figures for `CNC(=O)C1CCN(CC(=O)NCC(=O)N(C)c2ccc(C)c(COc3cccc4c3nc(OC)n4Cc3ccccn3)c2C)CC1` [Compound 52] were 0.0157 µM and 0.1 to 1 µM.
The like results for `COc1nc2c(OCc3c(Cl)ccc(N(C)C(=O)CNC(=O)CCN4CCN(C(=O)N(C)C)CC4)c3Cl)cccc2n1Cc1ccccn1` [Compound 17] were, in that order, 0.274 ± 0.069 µM and 0.1 to 1 µM.
Taken in the same sequence, the figures for `CC(=O)Nc1ccc(CC(=O)NCC(=O)N(C)c2ccc(Cl)c(COc3cccc4c(OCc5ccccn5)cc(C)nc34)c2Cl)cc1` [Compound 50] were 0.015 µM and 0.1 to 1 µM.
As for `CSCC[C@H](N)C(=O)N[C@@H](CCCCN)C(=O)N[C@@H](CCCNC(=N)N)C(=O)N1CCC[C@H]1C(=O)N1CCC[C@H]1C(=O)NCC(=O)N[C@@H](Cc1ccccc1)C(=O)N[C@@H](CO)C(=O)N1CCC[C@H]1C(=O)N[C@@H](Cc1ccccc1)C(=O)N[C@@H](CCCNC(=N)N)C(=O)O` [Met-Lys-BK, reference compound], the Ki in test [2] (setting [4]) was under 0.1 µM.
Take “4-((2-((2-((3-(((2-methoxy-1-(pyridin-2-ylmethyl)-1H-benzo[d]imidazol-4-yl)oxy)methyl)-2,4-dimethylphenyl)(methyl)amino)-2-oxoethyl)amino)-2-oxoethyl)amino)-N-methylpiperidine-1-carboxamide [Compound 21]”: the Ki in test [2] (setting [3]) was 0.881 ± 0.263 µM; in test [2] (setting [4]), 0.1 to 1 µM. Also, the EC50 in test [1] lay within 0.1 to 1 µM.
Regarding `COc1nc2c(OCc3c(Cl)ccc(N(C)C(=O)CNC(=O)CN4CCOCC4)c3Cl)cccc2n1Cc1ccccn1` [Compound 14, N-(2,4-dichloro-3-(((2-methoxy-1-(pyridin-2-ylmethyl)-1H-benzo[d]imidazol-4-yl)oxy)methyl)phenyl)-N-methyl-2-(2-morpholinoacetamido)acetamide], the Ki in test [2] (setting [3]) was 0.197 µM. The EC50 in test [1] fell in the range of 0.1 to 1 µM.
`COc1nc2c(OCc3c(Cl)ccc(N(C)C(=O)CNC(=O)CCN4CCOCC4)c3Cl)cccc2n1Cc1ccccn1` [Compound 54]: in test [2] (setting [3]), the Ki stood at 0.455 µM. Besides, the EC50 in test [1] was 0.1 to 1 µM.
The like results for `CCc1nc2c(OCc3c(Cl)ccc(N(C)C(=O)CNC(=O)CNC4CCN(C(=O)NC)CC4)c3Cl)cccn2c1C(O)c1ccccn1` (centres unmarked) [Compound 23] were, in that order, 1.73 ± 0.428 µM and over 1 µM.
Taken in the same sequence, the figures for `COC(=O)N1CCN(CCC(=O)NCC(=O)N(C)c2ccc(Cl)c(COc3cccc4c3nc(OC)n4Cc3ccccn3)c2Cl)CC1` [Compound 18] were 0.239 ± 0.15 µM and 0.1 to 1 µM.
For `COC(=O)Nc1ccc(CCC(=O)NCC(=O)N(C)c2ccc(C)c(COc3cccc4c3nc(OC)n4Cc3ccccn3)c2C)cn1` [Compound 6], the Ki in test [2] (setting [3]) is 0.01 ± 0.002 µM; in test [2] (setting [4]), under 0.1 µM. The EC50 in test [1] was under 0.1 µM.
